Laboratory results as given in PubChem BioAssay AID504702 (Southern Research Specialized Biocontainment Screening …, 2011).
Active and inactive are the calls of the source. The rule behind the calls is not given here.

Legend:
[1] = M. tuberculosis growth inhibition with meropenem, dose response, H37Rv, set 2 (AID 504702);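 note: growth read by Alamar Blue after 7 days plus overnight incubation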; conditions: M. tuberculosis H37Rv with meropenem, growth inhibition
[2] = tested on: M. tuberculosis H37Rv with meropenem, growth inhibition; assay: as above; conditions: for IC90: measured here: IC90 growth with meropenem

Structure (SMILES)	growth inhibition ([1]; at 25 µM (top of the series))	also measured
S=C(Nc1ccccc1)Nc1ccc(Cl)cn1	–	growth inhibition ([1]; at 18.8 µM (top of the series)): 1.73% (inactive); IC50 [2]: 6.64 µM; IC90 [2]: > 25 µM
O=C(Cc1ccccc1Cl)Nc1nc2ccccc2[nH]1	–	growth inhibition ([1]; at 18.8 µM (top of the series)): -1.22% (inactive); IC50 [2]: 18.9 µM; IC90 [2]: > 25 µM
O=C(COc1ccccc1)Nc1nc2ccccc2s1	-1.01% (inactive)	–
COc1ccc2nc(NC(=O)COc3c(C)cc(C)cc3C)sc2c1	-3.9% (inactive)	–
CCOc1ccc2c(ccn2-c2ccccc2)c1	-1.15% (inactive)	–
O=C(O)CCC(=O)Nc1nc2ccccc2s1	-2.73% (inactive)	–
N/C(=N\c1nc2ccccc2o1)NC(=O)c1ccccc1F	-5.8% (inactive)	–
CCOc1ccc2nc(NC(=O)COc3ccc(F)cc3)sc2c1	-3.93% (inactive)	–
COc1ccc2nc(NC(=O)c3oc4ccccc4c3C)sc2c1	-4.34% (inactive)	–
CCOc1ccc2[nH]ccc2c1	2.77% (inactive)	–
Cc1cc(C)c(OCC(=O)Nc2nc3ccccc3s2)c(Cl)c1	-6.55% (inactive)	–
Cc1cc2cc(O)ccc2[nH]1	1.86% (inactive)	–
O=C(COc1cccc2ccccc12)Nc1nc2ccccc2s1	-6.75% (inactive)	–
Cc1ccccc1OCC(=O)Nc1ccccc1-c1ccccc1	–	growth inhibition ([1]; at 18.8 µM (top of the series)): 23.6% (inactive); IC50 [2]: 14.6 µM; IC90 [2]: > 25 µM
COc1ccc2nc(NC(=O)COc3ccc(C)cc3)sc2c1	-3.26% (inactive)	–
CC(Oc1ccccc1)C(=O)Nc1nc2ccc(S(C)(=O)=O)cc2s1 (stereo unspecified)	-1.72% (inactive)	–
Cc1ccc(OCC(=O)Nc2nc3c(Cl)cccc3s2)cc1	-2.68% (inactive)	–
CC(C)(C)c1ccc(OCC(=O)Nc2nc3ccccc3s2)cc1	-9.97% (inactive)	–
O=C(COc1ccc(Cl)cc1)Nc1nc2ccc(F)cc2s1	-1.17% (inactive)	–
CCOc1ccc2nc(NC(=O)C(C)Oc3ccccc3F)sc2c1 (stereo unspecified)	2.03% (inactive)	–
COc1cccc(-c2ccc(-c3noc(-c4ccccc4F)n3)c(OC)n2)c1	–	growth inhibition ([1]; at 18.8 µM (top of the series)): 5.58% (inactive); IC90 [2]: > 25 µM
Cc1ccc(OCC(=O)Nc2nc3ccc(F)cc3s2)cc1	-0.17% (inactive)	–
Cc1cc2cc(Cl)ccc2[nH]1	0.31% (inactive)	–
c1ccc(-c2cc(N3CCOCC3)nc3ccccc23)cc1	6.06% (inactive)	IC50 [2]: 10 µM; IC90 [2]: > 18.8 µM
O=C(Nc1nc2ccccc2[nH]1)c1cc2cc(Br)ccc2o1	-2.41% (inactive)	–
CCOC(=O)c1c(C)[nH]c2ccccc12	-5.69% (inactive)	–
CCCN1CC(O)=C(c2nc3ccccc3s2)C1=N	1.43% (inactive)	–
Cc1cc(C)c(OCC(=O)Nc2nc3ccccc3[nH]2)c(C)c1	–	growth inhibition ([1]; at 18.8 µM (top of the series)): 5.17% (inactive); IC50 [2]: 5.55 µM; IC90 [2]: > 25 µM
O=C(Cc1csc(-c2ccccc2F)n1)Nc1nc2ccccc2[nH]1	1.69% (inactive)	–
Cc1ccc(C(C)C)c(OCC(=O)Nc2nc3ccccc3s2)c1	-4.96% (inactive)	–
